{"source": "patent US20140378378A1", "about": "“ERYTHROPOIETIN-DERIVED PEPTIDE AND USE THEREFOR” (priority 2011, published 2014)", "key": {"[1]": {"system": "cerebral infarction induced Sprague-Dawley rat models", "test": "Cerebral infarction animal experiment: middle cerebral artery blockage/reperfusion, infarct volume by TTC dye", "format": "in vivo", "settings": "3000 IU/kg EPO injected right after reperfusion, measured after 24 hours", "from_the_text": "In the present experiment, Spague-Dawley (SD) rats weighing about 280 g to about 330 g were used, which were purchased from Koatech Inc. (Seoul, Korea). The number of rats used was 39, wherein 13 of them were used as a control group and another 26 were divided into 13 in a MKX-2 treatment group and 13 in an EPO treatment group.\nTo induce cerebral infarction, a method of temporarily blocking a left middle cerebral artery and then reperfusing the same was used, and an intraluminal filament technique, which was modified from the Koizumi method was used. Then, each SD rat was anesthetized with a mixture gas of 70% nitrous oxide and 30% oxygen along with isoflurane (3% for induction and 2% for surgical procedure). During the surgery, an excision was made slightly leftwards from the center of the neck and the left common carotid artery was carefully separated without damaging surrounding vagus nerves. […]\nThe cerebral infarction area was measured by an image analyzer with LeicaQwin program (Leica Microsystem Image Solution Ltd., Cambridge, England) and a volume (mm^3) was calculated as a sum of infarct volumes (=infarct area of a slice×thickness) of the slices, and then an average and a standard deviation were calculated for each experimental group. […]"}, "retinal neurocytes": {"system": "retinal neurocytes", "test": "Cell survival of retinal neurocytes, MTT assay, 72 hours, hypoxic conditions", "format": "cell-based, rat", "settings": "for cell survival rate: normal culture = 100%", "protocol": "Eyes of a […] rat were removed and retina of the eyes were separated and then put into solution 1. Retinal tissues were treated in trypsin at a temperature of 37° C. for 10 minutes and then centrifuged at 180 g for 5 minutes.\nAfter centrifugation, a supernatant solution was discarded and all collected tissues were put into a stop solution. Aggregated tissues were disentangled by using a pipette and then centrifuged again at 180 g for 5 minutes. Separated cells were mixed with 10% FBS-MEM at a density of 1×10^6 cells/mL. 100 ul of cells were inoculated in each well of a 96-well plate and then cultured for 24 hours.\nThereafter, the culture medium was removed from the well plate for stabilization, a new culture medium and 5 uM Ara-c (cytosine arabinoside, sigma, C1768) were added thereto, cultured for 48 hours, the culture medium was removed again after 48 hours, a new culture medium was added thereto, and then cultured in an incubator having conditions of […], 5% CO2, and a temperature of 37° C. for the next experiment. Thereafter, the culture medium was removed for stabilization after another 48 hours, then a new culture medium was added thereto, and then cultured in an incubator under conditions of […], 5% CO2, and a temperature of 37° C. for the next experiment.\nCells were seeded in a 96-well plate at a density of 2×10^4 cells/well and 200 ul for each well. In this regard, cell confluence was set to be about 70% to about 80%. After 24 hours, when the cells have stabilized, a 26 gauge or 28 gauge needle was used to remove a preexisting medium from the wells. 200 ul of PBS free of serum and nutrients was added to each well, the wells were divided into EPO treatment groups and MKX-2 treatment groups, which were further divided into experimental groups according to concentrations of 0 nM, 0.1 nM, 1 nM, 10 nM, 100 nM, and 1000 nM and then treated with a drug for 72 hours under hypoxic conditions, and surviving […] neurocytes were quantitatively analyzed in an […]. The EPO used was an Eporon injection (Dong-A Pharmaceuticals, Korea). All experimental groups for each concentration included 7 wells. After a certain treatment time, 3-[4,5-dimethylthiazol-2-yl]-2,5-diphenyl tetrazolium bromide (MTT, Sigma, M2128) that was dissolved in a phosphate buffered saline (PBS) and then sterilization filtered by using a membrane filter having a thickness of 0.22 um was added to each well in an amount of 100 ul at a concentration of 1 mg/ml. In this regard, an MIT reagent was used after wrapping the MTT reagent with a foil sheet to block it from light. […]\nThereafter, an ELISA reader was used to measure an O.D. value at 570 nm for quantitatively analysis. […]"}}}
{"substance": "EPO: erythropoietin; the EPO used was an Eporon injection (Dong-A Pharmaceuticals, Korea)", "values": [{"measurement": "volume of cerebral infarction", "setting": "[1]", "result": "246.27 ± 37.52", "unit": "mm^3"}, {"measurement": "increase of cell survival rate compared to 0 nM", "setting": "retinal neurocytes; 0.1 nM and 1 nM", "result": "without any statistical significance"}, {"measurement": "cell survival rate", "setting": "retinal neurocytes; 10 nM", "result": 128.03, "unit": "%"}, {"measurement": "cell survival rate", "setting": "retinal neurocytes; 100 nM", "result": 127.6, "unit": "%"}, {"measurement": "cell survival rate", "setting": "retinal neurocytes; 1000 nM", "result": 124.77, "unit": "%"}]}
